Marks after values point to notes of the source that are not given here.
Tests used:
[1] = system: Wt and RKIP-tg mice; experiment: Left ventricular catheterization with esmolol infusion; assay type: in vivo, mouse
Method: For left ventricular pressure measurements we inserted a 1.4F pressure catheter (Millar Instruments) into the right carotid artery and advanced it to the left ventricular chamber. During measurement we injected esmolol (12 μg/min for 1 min) or dobutamine (in increasing doses: 75, 150, 375, 750 and 1500 ng/min) into the V. jugularis. We analyzed data using the Chart software (Chart5.4, AD Instruments) as previously described^60. We excluded mice with heart rates below 450 bpm (or below 430 bpm in the case of β1KO or RKIP-tg/β1KO mice).

[2] = system: RyR2, PLN and TnI phosphorylation; experiment: Isoproterenol infusion with or without ICI 118,551, immunoblot of heart lysates; assay type: in vivo, mouse
Text: Immunoblot quantification of (a) pPLN(S16), (b) pTnI (SS23/24), (c) pRyR2(S2808) and pRyR2(S2814) in heart lysates of untreated (Con) and isoproterenol-treated mice and mice treated with Iso in combination with ICI 118,551. pPLN(S16), n=13; pTnI(SS23/24), n=11; pRyR2(S2808), n=12; n are mice per group; mean±SEM; *, p<0.05 vs. Con. Immunoblot analysis of Con vs. Iso for RyR2 phosphorylation (pRyR2[S2808] and pRyR2[S2814]) show significant differences when a t-test analysis is applied (#, p<0.05 vs. Con).
We intravenously infused isoproterenol (1.1 μg/min for 2 min) with or without ICI 118,551 (0.14 μg/min for 2 min) via the V. jugularis as indicated. We pretreated mice with pertussis toxin (PTX; 300 μg/kg body weight; i.p) for 24 h as indicated. Mice were sacrificed and hearts were used for Western blot analyses. Efficiency of Gαi inhibition by PTX was evaluated by in vitro PTX-catalyzed ADP ribosylation in the presence of [^32P]-nicotinamide adenine dinucleotide ([^32P]NAD). […] After filtration through a 200 μm-mesh, we determined the protein content of the tissue homogenate and then incubated 30 μg of protein with 0.1 μM [^32P]NAD (800 Ci/mmol) in a buffer containing 20 mM Tris-HCl (pH7.6), 15 mM thymidine, 1 mM EDTA, 1 mM ATP, 0.1 mM GDP and 1 μg of PTX (preactivated) for 1 h at 30° C. […] Proteins were separated on SDS-PAGE and incorporated [^32P] was assessed by Phospholmager analysis. […]

[3] = system: Wt mice; experiment: Chronic isoproterenol infusion via osmotic minipumps in Wt mice (echocardiography, interstitial fibrosis); assay type: in vivo, mouse; conditions: mean ± SEM
Method: (§1) Echocardiographic measurements and histological analysis of interstitial fibrosis of wild-type (Wt) and RKIP transgenic (RKIP-tg) mice before and after 4 weeks of isoproterenol application via osmotic minipumps (Iso; 30 mg/kg/d). Shown are measurements of wall thicknesses (interventricular septal [IVS] and left ventricular posterior wall [LVPW]), left ventricular internal dimension (LVID), fractional shortening (FS), ejection fraction (EF), heart rates and the quantification of interstitial fibrosis (arbitrary units) of Sirius Red-stained left ventricular myocyrdial sections. Values represent mean (±SEM); *, p<0.05 vs. Con; #, p<0.05 vs. Wt Iso; $, p<0.05 vs. Wt Con. n represent the number of mice (for the analysis of interstitial fibrosis one transverse section was analyzed per mouse).
(§2) Osmotic minipumps (Alzet, model 1004) were implanted subcutaneously in male 8-week old Wt and RKIP-tg mice (C57/BL/6J background). The implanted pumps continuously released isoproterenol for 4 weeks (30 mg/kg body weight/day).
(§3) We performed transthoracic echocardiograms in a blinded manner using the Vevo700 or Vevo2100 high-resolution imaging systems (VisualSonics) and a 30-MHz probe. We obtained values for end-diastolic septal and posterior wall thicknesses as well as end-diastolic and -systolic internal diameters from 2D M-mode images in the short axis view at the proximal level of the papillary muscles. We obtained peak blood flow velocities at the site of TAC [Vmax (millimetres per second)] from pulsed-waved Doppler measurements. We calculated fractional shortening (FS), ejection fraction (EF), and aortic pressure gradients (mmHg) by VisualSonics Cardiac Measurements software. The shown data represent averages of at least six cardiac cycles per animal. We excluded mice with heart rates below 450 bpm (or below 430 bpm in the case of β1KO or RKIP-tg/(β1KO mice).
(§4) After fixation of hearts in 4% (m/v) paraformaldehyde, hearts were embedded in paraffin. Sections (2 μm) were stained with haematoxylin and eosin or with Sirius Red as described previously^60. For quantification of fibrosis, we stained left ventricular sections with Sirius Red and subsequently analyzed […] by semi-automated image analyses in blinded manner. For immunostaining, we used Vectastain Elite ABC Reagent with biotinylated goat-anti-rabbit IgG in combination with diaminobenzidine (DAB) and glucose oxidase (Sigma) similarly as described previously^60,61. We counterstained nuclei with haematoxylin.

[4] = system: RKIP-tg mice; experiment: Chronic isoproterenol infusion via osmotic minipumps in RKIP-tg mice (echocardiography, interstitial fibrosis); assay type: in vivo, mouse; conditions: mean ± SEM
Method: as §1, §2, §3, §4

[5] = system: RKIP; experiment: RKIP expression in neonatal rat cardiomyocytes (Western blot); assay type: cell-based; conditions: NRCM, 75 μg/ml, 30 h
Method: 500 000 NRCM/Well were plated in 12 Well plates, cultured for 24 h and subsequently treated with the indicated compounds for 30 h inkubiert. Cells were lysed, Western blots performed and signals were quantified using ImageJ (n=11). Shown are SEM; *. p=0.0003
We homogenized left ventricular tissue or cells in lysis buffer (1% [v/v] Triton-X-100, 5 mM EDTA, 300 mM NaCl, 50 mM Tris [pH7.4], supplemented with protease and phosphatase inhibitors). We removed cell debris by centrifugation (10 min, 1000×g, 4° C.) and used lysates for Western blot analysis: We determined protein concentrations and used equal amounts of protein for immunoblot analysis. We separated proteins by SDS-PAGE and transferred them to PVDF membranes. We blocked membranes for 1 h with 5% (w/v) fat-free milk dissolved in 10 mM Tris (pH7.6), 100 mM NaCl and 0.1% (v/v) Tween-20, incubated membranes with primary antibodies overnight at 4° C., thereafter with secondary antibodies conjugated with horseradish peroxidase (HRP) and used the Pierce™ ECL Plus Western blotting kit for detection. To average our immunoblot experiments and to present semi-quantitative results, we quantified immunoblot signals using ImageJ.
For the detection of RKIP phosphorylation (“activation as GRK2 inhibitor”), we used antibodies directed againt Ser153-phosphorylation of RKIP (pRKIP[hSer153], sc-32623, Santa Cruz Biotechnology; pRKIP [rSer153], sc-32622, Santa Cruz Biotechnology). For RKIP expression levels we used antibodies directed against RKIP (RKIP, sc5422, Santa Cruz Biotechnology; RKIP antibodies raised against recombinant GST-RKIP as antigen (Lorenz et al., 2003).
We tested an anti-CD20 antibody (such as rituximab) and an anti-VEGF antibody (such as bevacizumab) and several other therapeutic antibodies (obtained from the hospital pharmacy, Uniklinik Wiirzburg) on RKIP expression and RKIP activation (Ser153 phosphorylation) in neonatal rat cardiomyocytes as well as cardiomyocyte contractility.

[6] = system: RKIP; experiment: RKIP activation (Ser153 phosphorylation, pRKIP) in neonatal rat cardiomyocytes (Western blot); assay type: cell-based; conditions: NRCM, 25 and 75 μg/ml, 30 h
Method: NRCM were treated with rituximab (25 μg u. 75 μg/ml) or bevacizumab (25 μg u. 75 μg/ml) for 30 h and Western blot analysis performed. Gβ was used as loading control.
NRCM were treated with rituximab (25 μg u. 75 μg/ml) for 30 h and Western blot analysis and quantification using ImageJ was performed. Gβ was used as loading control. SEM, n=3, *, p=0.0004
NRCM were treated with rituximab (25 μg u. 75 μg/ml) for 30 h and Western blot analysis and quantification using ImageJ was performed. Gβ was used as loading control. SEM, n=4, *, p=0.0004
We homogenized left ventricular tissue or cells in lysis buffer (1% [v/v] Triton-X-100, 5 mM EDTA, 300 mM NaCl, 50 mM Tris [pH7.4], supplemented with protease and phosphatase inhibitors). We removed cell debris by centrifugation (10 min, 1000×g, 4° C.) and used lysates for Western blot analysis: We determined protein concentrations and used equal amounts of protein for immunoblot analysis. We separated proteins by SDS-PAGE and transferred them to PVDF membranes. […] To average our immunoblot experiments and to present semi-quantitative results, we quantified immunoblot signals using ImageJ. […]

[7] = system: neonatal rat cardiomyocytes (NRCM); experiment: Contractile activity of neonatal rat cardiomyocytes; assay type: cell-based; conditions: in the presence of isoprenaline (50 nM), 33° C., beats per minute
Method: NRCM were cultured for 24 h and transduced as indicated with a control virus (LacZ) or a virus encoding RKIP-wt and/or treated with rituximab as indicated. The spontaneous contractions were measured at 33° C. for one minute and normalized for each experiment to LacZ under unstimulated conditions. NRCM were then stimulated with isoproterenol (50 nM) and after 2 min contractions were counted again. SEM; *, p<0.0001, n=5
Neonatal rat cardiomyocytes were isolated as described (Lorenz et al. Nature 2003, 426:574-579; Vidal et al., Cardiovasc. Res. 2012, 96:255-264). Cardiomyocytes were transduced by adenoviruses or treated with indicated antibodies. To monitor the contractile activity of cardiomyocytes, live cells were examined on a Zeiss Axiovert 135 microscope.

[8] = 4 weeks isoproterenol 30 mg/kg/d via osmotic minipumps
[9] = 4 weeks isoproterenol 30 mg/kg/d, Sirius Red-stained left ventricular sections

Compound: COC(=O)CCc1ccc(OCC(O)CNC(C)C)cc1 (stereo not drawn) [Esmolol, esmolol]
- rates of contraction and relaxation (dP/dtmax, dP/dtmin) ([1]; esmolol 12 μg/min for 1 min, RKIP-tg mice): largely attenuated increased rates of contraction and relaxation
- heart rates ([1]; esmolol 12 μg/min for 1 min into V. jugularis, Wt and RKIP-tg mice): effectively reduced heart rates

Compound: Cc1ccc(OCC(O)C(C)NC(C)C)c2c1CCC2 (stereo not drawn) [ICI 118,551]
- RyR2(S2808/S2814) phosphorylation ([2]; isoproterenol plus ICI 118,551 (0.14 μg/min for 2 min i.v.) vs. isoproterenol alone): much stronger phosphorylation of RyR2
- PLN and TnI phosphorylation ([2]; isoproterenol plus ICI 118,551 vs. isoproterenol alone): hardly affected PLN and TnI phosphorylation

Compound: CC(C)NCC(O)c1ccc(O)c(O)c1 (stereo not drawn) [Iso, isoproterenol]
- EF [3, 8]: 73.0 ± 2.52^$ %
- FS [3, 8]: 41.6 ± 2.00^$ % of LVID
- Heart rate [3, 8]: 654 ± 25* bpm
- IVS, end-diastolic [3, 8]: 0.74 ± 0.039* mm
- LVID, end-diastolic [3, 8]: 3.69 ± 0.172 mm
- LVPW, end-diastolic [3, 8]: 0.76 ± 0.036* mm
- Interstitial fibrosis [3, 9]: 2.05 ± 0.336* arbitrary units
- EF [4, 8]: 87.1 ± 1.64*^# %
- FS [4, 8]: 55.9 ± 1.98*^# % of LVID
- Heart rate [4, 8]: 668 ± 21* bpm
- IVS, end-diastolic [4, 8]: 0.81 ± 0.026* mm
- LVID, end-diastolic [4, 8]: 3.08 ± 0.086 mm
- LVPW, end-diastolic [4, 8]: 0.84 ± 0.022* mm
- Interstitial fibrosis [4, 9]: 1.05 ± 0.263*^# arbitrary units

Compound: bevacizumab: anti-VEGF antibody, recombinant humanized monoclonal IgG1
- RKIP expression [5]: most up-regulation of RKIP expression
- "active" RKIP (Ser153-phosphorylation) [6]: increased

Compound: panitumumab: anti-EGFR antibody
- RKIP expression [5]: up-regulation of RKIP expression

Compound: rituximab: anti-CD20 antibody
- RKIP expression [5]: even more prominent up-regulation of RKIP
- "active" RKIP (Ser153-phosphorylation) [6]: increased
- NRCM contractility [7]: increased NRCM contractility
